Measurements from BigSolDB 2.1.

Cc1ccc(-c2cc(C(F)(F)F)nn2-c2ccc(S(N)(=O)=O)cc2)cc1
solubility (mole fraction)
Conditions	293.2 K	298.2 K	303.2 K	308.2 K	313.2 K
in NMP	0.0593	0.0672	0.0776	0.0799	0.0917
in isopropanol	0.00851	0.00902	0.0156	0.0198	0.0233
